Assay results as given in PubChem BioAssay AID1963844 (Molecular Pharmacology Branch, DTP, NCI, 2024).
pIC50: −log10 of the molar value.

System: 422866-222-R5-J1-PDC complex spheroid viability
Assay: Anticancer human tumor 422866-222-R5-J1-PDC patient-derived pancreatic adenocarcinoma cell line growth inhibition [POLQ]
Settings: for pIC50: curve of first compound; for viability, T/C: stronger effect = lower value
Method: Multicellular complex tumor spheroid response to Polymerase (POL) inhibitors (novobiocin, ART-558, RP6685) in combination with a variety of drugs and investigational agents in selected tumor cell lines
The POL inhibitors (novobiocin, ART-558, and RP6685) were evaluated both individually and in combination with standard of care and investigational anticancer small molecules within a complex spheroid model of solid tumors. . Complex spheroids include a stromal component modeled by human endothelial cells (HUVEC) and fibroblasts modeled by human mesenchymal stem cells (MSCs). The concentration ranges selected for each drug and investigational agent were based upon clinically achievable concentrations if the clinical Cmax of the agent was known.
Compounds. The drugs and investigational agents: novobiocin (NSC847541), ART-558 (NSC835418), RP-6685 (NSC848927), peposertib (NSC802822), ceralasertib (NSC780249), elimusertib (NSC800525), camonsertib (NSC841442), AZD-1390 (NSC803789), olaparib (NSC753686), talazoparib (NSC767125), rucaparib (NSC756644), sotorasib (NSC818433), MRTX-1133 (NSC836407), SN-38 (NSC673596), topotecan (NSC609699), epotoside (NSC141540), doxorubicin (NSC123127), gemcitabine (NSC613327), 5-fluorouracil (NSC19893), paclitaxel (NSC125973), vemurafenib (NSC761431), MSA-2 (NSC828583), SN-011 (NSC837082), adavosertib (NSC754352), prexasertib (NSC758257), carboplatin (NSC241240) and oxaliplatin (NSC266046), were obtained from the National Cancer Institute (NCI) Developmental Therapeutics Program Chemical Repository (21). The FDA-approved anticancer drug set is available from the Developmental Therapeutics Program at https://dtp.cancer.gov/organization/dscb/obtaining/. […] The stock solutions were prepared in dimethyl sulfoxide (DMSO, Sigma-Aldrich, St. Louis, MO, cat. D2650), except for the platinum compounds which were prepared in saline (Quality Biological, Gaithersburg, MD, cat. 114-055-101), at 800-fold the tested concentration and stored at -70 degrees C prior to their use. All drugs and investigational agents were tested over a range starting from a high concentration at or near the clinical Cmax and decreasing in half-log increments. If the clinical Cmax for an agent had not been determined, the highest concentration tested was 10 microM, except for SN-38, which was tested at a high concentration of 1 microM.
Cell Culture. All cells were maintained in an incubator at 37 degrees C and 5% CO2 with 95% humidity. The PDC lines were cultured according to standard operating procedures established by the NCI PDMR (https://pdmr.cancer.gov). Table 3 of the manuscript, lists the cell lines along with the number of the three cell types plated to form the mct-spheroids and media for tumor cell growth. After thawing, all PDC lines, except 997537-175-T-J1-PDC and 415267-285-R-J2-PDC, were cultured in Matrigel-coated flasks prepared with a working solution of 1X Ham's F-12 nutrient mix, without supplementation (Thermo Fisher Scientific, cat. 11765054), 100 U/mL penicillin-streptomycin (Thermo Fisher Scientific, cat. 15140122), and 2.5% Matrigel (Corning Inc., Corning, NY, cat. 354248) for the first three passages. The two PDC lines 997537-175-T-J1-PDC and 415267-285-R-J2-PDC were cultured on uncoated flasks. The 857933-349-R-J2-PDC line was cultured in 6C/Colon 1B media containing advanced DMEM/F-12 (Thermo Fisher Scientific, cat. 12634028), 10 mM HEPES (Thermo Fisher Scientific, cat. 15630080), 1X GlutaMAX supplement (Thermo Fisher Scientific, cat. 35050061), 0.1 mg/mL primocin (InvivoGen, San Diego, CA, cat. ant-pm-2), 10% defined fetal bovine serum, heat inactivated (HyClone Laboratories Inc., Logan, UT, cat. SH30070.03HI), 50% L-WRN conditioned media (ATCC, cat. CRL-3276), 1.25 mM N-Acetyl-L-cysteine (Sigma-Aldrich, cat. A9165), 10 mM nicotinamide (Sigma-Aldrich, cat. N0636), 1X B-27 supplement (Thermo Fisher Scientific, cat. 17504044), 1X N-2 supplement (Thermo Fisher Scientific, cat. […]

[1] = second compound 0.0316 µM, first compound 0.0316 µM
[2] = second compound 0.0316 µM, first compound 0.1 µM
[3] = second compound 0.0316 µM, first compound 0.316 µM
[4] = second compound 0.0316 µM, first compound 1 µM
[5] = second compound 0.1 µM, first compound 0.0316 µM
[6] = second compound 0.1 µM, first compound 0.1 µM
[7] = second compound 0.1 µM, first compound 0.316 µM
[8] = second compound 0.1 µM, first compound 1 µM
[9] = second compound 0.316 µM, first compound 0.0316 µM
[10] = second compound 0.316 µM, first compound 0.1 µM
[11] = second compound 0.316 µM, first compound 0.316 µM
[12] = second compound 0.316 µM, first compound 1 µM
[13] = second compound 1 µM, first compound 0.0316 µM
[14] = second compound 1 µM, first compound 0.1 µM
[15] = second compound 1 µM, first compound 0.316 µM
[16] = second compound 1 µM, first compound 1 µM
[17] = second compound 3.16 µM, first compound 0.0316 µM
[18] = second compound 3.16 µM, first compound 0.1 µM
[19] = second compound 3.16 µM, first compound 0.316 µM
[20] = second compound 3.16 µM, first compound 1 µM
[21] = second compound 10 µM, first compound 0.0316 µM
[22] = second compound 10 µM, first compound 0.1 µM
[23] = second compound 10 µM, first compound 0.316 µM
[24] = second compound 10 µM, first compound 1 µM
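Note: spheroids exposed to compounds for one week before readout.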
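Throughout, for viability, T/C: percent of DMSO vehicle wells luminescence so 100% = untreated viability.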

## CC1COCCN1c1cc(C2(S(C)(=N)=O)CC2)nc(-c2ccnc3[nH]ccc23)n1 (centres undefined) + Nc1ccc(C#CCN(C(=O)Cc2ncc(C(F)(F)F)cc2C(F)(F)F)c2ccc(F)cc2)nn1
Second compound 0.0316 µM
  pIC50: 5.61
Second compound 0.1 µM
  pIC50: 5.74
Second compound 0.316 µM
  pIC50: 5.76
Second compound 1 µM
  pIC50: 5.67
Second compound 3.16 µM
  pIC50: 5.76
Second compound 10 µM
  pIC50: 5.72
[1]
  viability, T/C: 105%
[2]
  viability, T/C: 81.7%
[3]
  viability, T/C: 80.9%
[4]
  viability, T/C: 64.5%
Second compound 0.0316 µM, first compound 3.16 µM
  viability, T/C: 38%
Second compound 0.0316 µM, first compound 10 µM
  viability, T/C: 42.6%
[5]
  viability, T/C: 92%
[6]
  viability, T/C: 96.5%
[7]
  viability, T/C: 95.3%
[8]
  viability, T/C: 58.9%
Second compound 0.1 µM, first compound 3.16 µM
  viability, T/C: 41.4%
Second compound 0.1 µM, first compound 10 µM
  viability, T/C: 42.2%
[9]
  viability, T/C: 89.8%
[10]
  viability, T/C: 96%
[11]
  viability, T/C: 89.7%
[12]
  viability, T/C: 65.6%
Second compound 0.316 µM, first compound 3.16 µM
  viability, T/C: 32.5%
Second compound 0.316 µM, first compound 10 µM
  viability, T/C: 34%
[13]
  viability, T/C: 107%
[14]
  viability, T/C: 112%
[15]
  viability, T/C: 92.4%
[16]
  viability, T/C: 70.5%
Second compound 1 µM, first compound 3.16 µM
  viability, T/C: 38.7%
Second compound 1 µM, first compound 10 µM
  viability, T/C: 28.2%
[17]
  viability, T/C: 87.3%
[18]
  viability, T/C: 108%
[19]
  viability, T/C: 98.8%
[20]
  viability, T/C: 57.2%
Second compound 3.16 µM, first compound 3.16 µM
  viability, T/C: 40.8%
Second compound 3.16 µM, first compound 10 µM
  viability, T/C: 43.5%
[21]
  viability, T/C: 109%
[22]
  viability, T/C: 117%
[23]
  viability, T/C: 102%
[24]
  viability, T/C: 65.9%
Second compound 10 µM, first compound 3.16 µM
  viability, T/C: 37.8%
Second compound 10 µM, first compound 10 µM
  viability, T/C: 31.8%

## COc1cccc(OCCCN)c1-c1cc(Nc2cnc(C#N)cn2)n[nH]1 + Nc1ccc(C#CCN(C(=O)Cc2ncc(C(F)(F)F)cc2C(F)(F)F)c2ccc(F)cc2)nn1
Second compound 0.0316 µM
  pIC50: 8.14
Second compound 0.1 µM
  pIC50: 8.17
Second compound 0.316 µM
  pIC50: 8.24
Second compound 1 µM
  pIC50: 8.23
Second compound 3.16 µM
  pIC50: 8.23
Second compound 10 µM
  pIC50: 8.13
Second compound 0.0316 µM, first compound 0.00316 µM
  viability, T/C: 82.4%
Second compound 0.0316 µM, first compound 0.01 µM
  viability, T/C: 37.4%
[1]
  viability, T/C: 33.4%
[2]
  viability, T/C: 30.5%
[3]
  viability, T/C: 35.9%
[4]
  viability, T/C: 44.1%
Second compound 0.1 µM, first compound 0.00316 µM
  viability, T/C: 62.6%
Second compound 0.1 µM, first compound 0.01 µM
  viability, T/C: 45.9%
[5]
  viability, T/C: 33.6%
[6]
  viability, T/C: 32.8%
[7]
  viability, T/C: 36.8%
[8]
  viability, T/C: 54.3%
Second compound 0.316 µM, first compound 0.00316 µM
  viability, T/C: 60.3%
Second compound 0.316 µM, first compound 0.01 µM
  viability, T/C: 40.4%
[9]
  viability, T/C: 36.1%
[10]
  viability, T/C: 38.4%
[11]
  viability, T/C: 27.1%
[12]
  viability, T/C: 38%
Second compound 1 µM, first compound 0.00316 µM
  viability, T/C: 68.9%
Second compound 1 µM, first compound 0.01 µM
  viability, T/C: 33.9%
[13]
  viability, T/C: 35%
[14]
  viability, T/C: 38.6%
[15]
  viability, T/C: 30.6%
[16]
  viability, T/C: 29.4%
Second compound 3.16 µM, first compound 0.00316 µM
  viability, T/C: 59.2%
Second compound 3.16 µM, first compound 0.01 µM
  viability, T/C: 42.8%
[17]
  viability, T/C: 38.5%
[18]
  viability, T/C: 29%
[19]
  viability, T/C: 32.2%
[20]
  viability, T/C: 44.8%
Second compound 10 µM, first compound 0.00316 µM
  viability, T/C: 76.1%
Second compound 10 µM, first compound 0.01 µM
  viability, T/C: 40.1%
[21]
  viability, T/C: 37.4%
[22]
  viability, T/C: 36.5%
[23]
  viability, T/C: 29%
[24]
  viability, T/C: 38.6%
